The test system of data set [1] is hESC-derived ECs. The experiment in a line: Vascular toxicity of terbinafine in static or flow culture (morphology, qRT-PCR, ELISA). In kind it is cell-based, human. The protocol: (§1) Fluidic shear stress experiments. HESC-derived ECs (2.6×10^6 cells/mL), HUAECs, HUVECs were seeded on flow chamber untreated-slides (μ-slide 0.4, luer, IBIDI) and grown until confluence. Using a programmed IBIDI pump with positive pressure, the cell monolayer was perfused with EGM-2 medium for 7 days, at flow rate of 15.1 mL/min (corresponding to shear stress of 20 dyne/cm2), or 3.02 mL/min (corresponding to shear stress of 4 dyne/cm2). After 7 days the flow was stopped, the cells imaged, and then stained or collected for posterior gene analysis. Medium was collected for ELISA assays. In some experiments, cells were cultured in medium supplemented with terbinafine (0.1 μM or 1 μM) (Sigma) for a maximum of 24 h, under shear stress. Static controls were performed in the chamber coated-slides but without flow. The IBIDI slides allow a laminar perfusion in rectangular flow geometry.
(§2) Evaluation of the levels of vascular injury by specific markers. ELISA kits analyzed supernatants collected from the shear stress experiments for vWF and vWFpp (Gen-Probe GTI Diagnostic) and ADMA (Enzo Life Sciences), according to manufacturer's recommendations.
Terbinafine is an antifungal agent (inhibitor of ergosterol synthesis) that inhibits angiogenesis by suppressing endothelial cell proliferation, inhibits DNA synthesis and activates EC apoptosis^34, 35. Terbinafine is cytotoxic for HUVECs for concentrations above 120 μM^35. To determine whether the hESC-derived ECs cultured under flow conditions could be used to assess vascular toxicity, cells were cultured for 7 days at 20 dyne/cm2 after which the culture medium was supplemented or not with terbinafine (0.1 and 1 μM) and cells cultured under the same flow conditions for one more day. […] Next, was assessed by qRT-PCR the expression of genes involved in inflammation (ICAM-1; E-selectin), oxidative stress sensing (HO-1) and vasculature modulation (eNOS) in hESC-derived cells and control HUAEC after exposition to terbinafine (FIG. 3B). As expected, the expression of these genes increases under fluidic shear stress^36. […] Upregulation of some genes (HO-1 and E-selectin) was only observed for concentrations of 1 μM in HUAECs. […] ADMA is a naturally occurring amino acid that circulates in plasma and is generated by degradation of methylated proteins. Increase levels of ADMA inhibits nitric oxide (NO) production by competitive inhibition of the physiological substrate L-arginine^38. Drugs that inhibit NO pathway, upregulate caveolin-1 expression and/or enhance ADMA levels could potentially be associated with drug-induced endothelial dysfunction. Therefore, increased circulating levels of ADMA may serve as predictive marker of EC dysfunction^38. […] Such effect was not observed for HUAECs cultured under the same conditions. […] In addition, hESC-derived ECs are more sensitive to the effect of terbinafine than HUAECs.
Next, the vascular damage/injury induced by terbinafine was assessed in hESC-derived ECs and control HUAECs, in the same conditions as before, by measuring the levels of ADMA and the ratio von Willebrand factor pro-peptide (vWFpp): von Willebrand factor (vWF) secreted by these cells (FIG. 3C). The last 2 proteins with different biological activity are released in equimolar concentrations in plasma and an increased level of both proteins predicts EC activation/injury. […] Remarkably, hESC-derived ECs cultured under flow conditions in the presence of terbinafine secrete higher levels of ADMA and vWFpp:vWF than without the drug. Again, the sensitivity of HUAECs to terbinafine was lower than hESC-derived ECs. The concentration of ADMA secreted by hESC-derived cells at 24 h is 3.5 times higher than in basal conditions. Importantly, this shift in concentration is observed in human patients with cardiovascular diseases. Healthy persons have an average of 0.45±0.19 μmol of ADMA per liter of blood and this value increases 2.2 or 2.7 folds when the patient has idiopathic pulmonary arterial hypertension^37. […]

Data set [2] concerns HUVECs. The note with it: cited from earlier work.
In data set [3] the test system is HUAECs. The experiment in a line: Vascular toxicity of terbinafine in static or flow culture (qRT-PCR, ELISA). It is filed as cell-based, human. The method, then: as §1, §2
Terbinafine is an antifungal agent (inhibitor of ergosterol synthesis) that inhibits angiogenesis by suppressing endothelial cell proliferation, inhibits DNA synthesis and activates EC apoptosis^34, 35. Terbinafine is cytotoxic for HUVECs for concentrations above 120 μM^35. To determine whether the hESC-derived ECs cultured under flow conditions could be used to assess vascular toxicity, cells were cultured for 7 days at 20 dyne/cm2 after which the culture medium was supplemented or not with terbinafine (0.1 and 1 μM) and cells cultured under the same flow conditions for one more day. […] Next, was assessed by qRT-PCR the expression of genes involved in inflammation (ICAM-1; E-selectin), oxidative stress sensing (HO-1) and vasculature modulation (eNOS) in hESC-derived cells and control HUAEC after exposition to terbinafine (FIG. 3B). As expected, the expression of these genes increases under fluidic shear stress^36. […] Upregulation of some genes (HO-1 and E-selectin) was only observed for concentrations of 1 μM in HUAECs. […] ADMA is a naturally occurring amino acid that circulates in plasma and is generated by degradation of methylated proteins. Increase levels of ADMA inhibits nitric oxide (NO) production by competitive inhibition of the physiological substrate L-arginine^38. […]
Next, the vascular damage/injury induced by terbinafine was assessed in hESC-derived ECs and control HUAECs, in the same conditions as before, by measuring the levels of ADMA and the ratio von Willebrand factor pro-peptide (vWFpp): von Willebrand factor (vWF) secreted by these cells (FIG. 3C). […]

[4] abbreviates: flow conditions, medium supplemented with terbinafine.

The structures appear in SMILES notation.

Results on one compound are retold here after patent US10526580B2, “Differentiated cell population of endothelial cells derived from human pluripotent stem cells, composition, system, kit and uses thereof” (BIOCANT-ASSOCIAÇÃO DE TRANSFERÊNCIA DE TECNOLOGIA, priority 2012, dated 2020).

In the case of `CN(C/C=C/C#CC(C)(C)C)Cc1cccc2ccccc12` [terbinafine], the “changes in EC morphology and cadherin expression” value in data set [1] (flow 20 dyne/cm2, terbinafine 0.1 and 1 μM, day 8) was “No significant changes”. For the same compound, the “secretion of ADMA and vWFpp:vWF versus without the drug” value in data set [1] (flow conditions, ELISA) is “higher levels”. The “concentration of ADMA secreted, relative to basal conditions” value in data set [1] (flow conditions, at 24 h, ELISA) is recorded as 3.5 times. The “expression of DDAH1 and DDAH2” value in data set [1] (setting [4]) is reported as “significant decrease”. The “secretion of ADMA or vWFpp:vWF versus control conditions” value in data set [1] (static conditions, ELISA) is listed as “no significant higher secretion”; in data set [3] (static conditions, ELISA), “no significant higher secretion”. In data set [1] (terbinafine at 0.1 μM, flow 20 dyne/cm2, 24 h), the “expression of ICAM-1, E-selectin, HO-1 and eNOS genes (qRT-PCR)” value is on record as “higher”. The “concentrations cytotoxic for HUVECs” value in data set [2] is on record as “above 120 μM”. For the same compound, the “concentration at which upregulation of some genes (HO-1 and E-selectin) was observed” value in data set [3] (flow 20 dyne/cm2, 24 h) was 1 µM. In data set [3] (flow conditions, exposed to terbinafine, ELISA), the “secretion of vWFpp:vWF” value was “higher levels”. For the same compound, in data set [3] (setting [4]), the “decrease in the expression of DDAH1 and DDAH2” value is reported as “not observed”.
